Patent publication US6046238A, “Method for treating or preventing the spread of acne vulgaris” (TriStrata, Inc., priority 1999, dated 2000)
Values after ≈ are worked out from the molar mass of the structure shown. “Also recorded” adds a separate entry of the source. Read-outs that look alike come from different tables or passages of the source.

Experiments:
Format in all cases: cell-based
[1] = system: Staphylococcus epidermidis; assay: MIC Agar Dilution Test, Staphylococcus epidermidis
Text: (§1) The following strains of microorganisms were used in Minimum Inhibitory Concentration (MIC) tests for phenyl 2-acetoxyethanoic acid in this example and for benzoyl peroxide, chlorhexidine gluconate and triclosan in the following examples. In total, five strains were used for S. aureus, five strains were used for S. epidermidis, two strains were used for M. sedentarius, three strains were used for M. luteus, two strains were used for B. epidermis, three strains were used for C. minutissium, one strain was used for S. marcescens, three strains were used for P. aeruginosa, four strains were used for E. coli, and thirty-two strains were used for P. acnes.
(§2) Antimicrobial effects were determined based on MIC Agar Dilution Test utilizing Trypticase Soy Agar II (BBL) incorporation plates with and without 10% intralipid (Kabi Pharmacia Inc.). Initially, phenyl 2-acetoxyethanoic acid was prepared as a 2 mg/ml (0.2%) solution in water. This solution with serial dilution was incorporated into the test agar plates. The MIC test gave similar results when the same species but a different strain was used.
(§3) Under the same test conditions described in Example 1, benzoyl peroxide was prepared as a 2.5 mg/ml (0.25%) solution in water. This solution with serial dilution was incorporated into the test agar plates. Typical test results are shown as follows.
(§4) Under the same test conditions described in Example 1, chlorhexidine gluconate was prepared as a 2 mg/ml (0.2%) solution in water. This solution with serial dilution was incorporated into the test agar plates. Typical test results are shown as follows.
(§5) Under the same test conditions described in Example 1, triclosan was prepared as a 10 mg/ml (1%) solution in water. This solution with serial dilution was incorporated into the test agar plates. Typical test results are shown as follows.
(§6) Ten different species of bacteria were used in Minimum Inhibitory Concentration (MIC) tests. The bacteria include S. aureus, S. epidermidis,M. sedentarius, M. luteus, B. epidermis, C. minutissium, S. marcescens, P. aeruginosa, E. coli, and P. acnes. In addition various sources and strains of these bacteria were also included in the tests, and up to 32 different strains of P. acnes were used.
(§7) The test substance selected from phenyl 2-acetoxyethanoic acid, benzoyl peroxide, chlorhexidine gluconate and triclosan was dissolved in water, and the solution with serial dilution was incorporated into the test agar plates. The plates containing different concentrations of test substance were inoculated with a strain of bacterium. MIC is defined as the lowest concentration of the test substance in the plate in which there is no growth of the microorganism.

Serratia marcescens = assay: MIC Agar Dilution Test, Serratia marcescens
Text: as §1, §2, §3, §4, §5, §6, §7

Escherichia coli = assay: MIC Agar Dilution Test, Escherichia coli
Text: as §1, §2, §3, §4, §5, §6, §7

Micrococcus sedentarius = assay: MIC Agar Dilution Test, Micrococcus sedentarius; conditions: Kytococcus sedentarius
Text: as §1, §2, §3, §4, §5, §6, §7

Micrococcus luteus = assay: MIC Agar Dilution Test, Micrococcus luteus
Text: as §1, §2, §3, §4, §5, §6, §7

Brevibacterium epidermis = assay: MIC Agar Dilution Test, Brevibacterium epidermis
Text: as §1, §2, §3, §4, §5, §6, §7

[2] = system: Corynebacterium minutissium; assay: MIC Agar Dilution Test, Corynebacterium minutissium
Text: as §1, §2, §3, §4, §5, §6, §7

Pseudomonas aeruginosa = assay: MIC Agar Dilution Test, Pseudomonas aeruginosa
Text: as §1, §2, §3, §4, §5, §6, §7

Propionibacterium acnes = assay: MIC Agar Dilution Test, Propionibacterium acnes; conditions: Cutibacterium acnes
Text: as §1, §2, §3, §4, §5, §6, §7

[3] = system: ten different species of bacteria; assay: MIC Agar Dilution Test, panel of ten bacteria
Text: as §1, §2, §3, §4, §5
In order to determine the antimicrobial effect of an aryl 2-acetoxyethanoicacid, a standard test method of Minimum Inhibitory Concentration (MIC) against the growth of 10 bacteria was used. To determine a prophylactic effect against the development of, as well as a topical effect in the treatment of, body foul door, eleven human subjects participated in this study. More than twenty human subjects participated in a study to determine whether the compositions containing an aryl 2-acetoxyethanoic acid were therapeutically effective for topical treatment of folliculitis and other skin lesions, nail infections and mucosal infections caused by microbial infections. Scientific and test results are overviewed as follows.
as §6, §7

Staphylococcus aureus = assay: MIC Agar Dilution Test, Staphylococcus aureus
Text: as §1, §2, §3, §4, §5, §6, §7

[4] = S. epidermidis, 10% intralipid, read-out: MIC Lipid
[5] = S. epidermidis, no lipid, read-out: MIC No Lipid
[6] = S. marcescens, 10% intralipid, read-out: MIC Lipid
[7] = S. marcescens, no lipid, read-out: MIC No Lipid
[8] = E. coli, 10% intralipid, read-out: MIC Lipid
[9] = E. coli, no lipid, read-out: MIC No Lipid
[10] = M. sedentarius, 10% intralipid, read-out: MIC Lipid
[11] = M. sedentarius, no lipid, read-out: MIC No Lipid
[12] = M. luteus, 10% intralipid, read-out: MIC Lipid
[13] = M. luteus, no lipid, read-out: MIC No Lipid
[14] = B. epidermis, 10% intralipid, read-out: MIC Lipid
[15] = B. epidermis, no lipid, read-out: MIC No Lipid
[16] = C. minutissium, 10% intralipid, read-out: MIC Lipid
[17] = C. minutissium, no lipid, read-out: MIC No Lipid
[18] = P. aeruginosa, 10% intralipid, read-out: MIC Lipid
[19] = P. aeruginosa, no lipid, read-out: MIC No Lipid
[20] = P. acnes, 10% intralipid, read-out: MIC Lipid
[21] = P. acnes, no lipid, read-out: MIC No Lipid
[22] = in the absence of lipid materials, triclosan: excluding S. marcescens and P. aeruginosa
[23] = in the presence of 10% lipid materials, benzoyl peroxide: excluding S. marcescens and P. aeruginosa
[24] = S. aureus, 10% intralipid, read-out: MIC Lipid
[25] = S. aureus, no lipid, read-out: MIC No Lipid

In the case of `N=C(NCCCCCCNC(=N)NC(=N)Nc1ccc(Cl)cc1)NC(=N)Nc1ccc(Cl)cc1` [chlorhexidine gluconate], the MIC [1, 4] is reported as greater than 2000 µg/mL, the MIC [1, 5] is reported as 125 µg/mL and the MIC (Serratia marcescens; [6]) is reported as greater than 2000 µg/mL. For the same compound, the MIC (Serratia marcescens; [7]) was 1000 µg/mL, the MIC (Escherichia coli; [8]) was greater than 2000 µg/mL and the MIC (Escherichia coli; [9]) was 250 µg/mL. It also gave an MIC (Micrococcus sedentarius; [10]) greater than 2000 µg/mL, an MIC (Micrococcus sedentarius; [11]) of 125 µg/mL and an MIC (Micrococcus luteus; [12]) greater than 2000 µg/mL. The MIC (Micrococcus luteus; [13]) was 125 µg/mL, the MIC (Brevibacterium epidermis; [14]) was greater than 2000 µg/mL and the MIC (Brevibacterium epidermis; [15]) was 250 µg/mL. It also gave an MIC [2, 16] greater than 2000 µg/mL, an MIC [2, 17] of 125 µg/mL and an MIC (Pseudomonas aeruginosa; [18]) greater than 2000 µg/mL. The MIC (Pseudomonas aeruginosa; [19]) was 1000 µg/mL, the MIC (Propionibacterium acnes; [20]) was greater than 2000 µg/mL and the MIC (Propionibacterium acnes; [21]) was 62.5 µg/mL. The “effect against the growth of the bacteria” value (shortened to “effect against the growth”) [3, 22] was “effective against various bacteria”, the “effect against the growth” value [3, 23] was “totally ineffective; also recorded: not effective against the growth of all the bacteria tested; also recorded: ineffective against most microorganisms” and the MIC (Staphylococcus aureus; [24]) was greater than 2000 µg/mL. The MIC (Staphylococcus aureus; [25]) was 125 µg/mL.

`O=C(OOC(=O)c1ccccc1)c1ccccc1` [benzoyl peroxide] gave an MIC [1, 4] of 1250 µg/mL (≈ 5.16 mM), an MIC [1, 5] of 2500 µg/mL (≈ 10.3 mM) and an MIC (Serratia marcescens; [6]) of 1250 µg/mL (≈ 5.16 mM). The MIC (Serratia marcescens; [7]) was 72500 µg/mL (≈ 299 mM), the MIC (Escherichia coli; [8]) was 1250 µg/mL (≈ 5.16 mM) and the MIC (Escherichia coli; [9]) was 2500 µg/mL (≈ 10.3 mM). The MIC (Micrococcus sedentarius; [10]) was 650 µg/mL (≈ 2.68 mM), the MIC (Micrococcus sedentarius; [11]) was 2500 µg/mL (≈ 10.3 mM) and the MIC (Micrococcus sedentarius; in the presence of 10% lipid materials, read-out: concentration showing inhibitory effects against M. sedentarius) was 625 µg/mL. It also gave an MIC (Micrococcus luteus; [12]) of 650 µg/mL (≈ 2.68 mM), an MIC (Micrococcus luteus; [13]) of 2500 µg/mL (≈ 10.3 mM) and an MIC (Micrococcus luteus; in the presence of 10% lipid materials (printed M. lutens), read-out: concentration showing inhibitory effects against M. luteus) of 625 µg/mL. It also gave an MIC (Brevibacterium epidermis; [14]) of 1250 µg/mL (≈ 5.16 mM), an MIC (Brevibacterium epidermis; [15]) of 2500 µg/mL (≈ 10.3 mM) and an MIC [2, 16] of 1250 µg/mL (≈ 5.16 mM). It also gave an MIC [2, 17] of 2500 µg/mL (≈ 10.3 mM), an MIC (Pseudomonas aeruginosa; [18]) of 1250 µg/mL (≈ 5.16 mM) and an MIC (Pseudomonas aeruginosa; [19]) of 72500 µg/mL (≈ 299 mM). It also gave an MIC (Propionibacterium acnes; [20]) of 625 µg/mL (≈ 2.58 mM), an MIC (Propionibacterium acnes; [21]) of 2500 µg/mL (≈ 10.3 mM) and an MIC (Propionibacterium acnes; in the presence of 10% lipid materials, read-out: concentration effective against P. acnes) of 625 µg/mL. The “effect against the growth” value [3, 22] was “not effective against the growth of all the bacteria tested”, the “effect against the growth” value [3, 23] was “moderately effective” and the MIC (Staphylococcus aureus; [24]) was 1250 µg/mL (≈ 5.16 mM). The MIC (Staphylococcus aureus; [25]) was 2500 µg/mL (≈ 10.3 mM).

`Oc1cc(Cl)ccc1Oc1ccc(Cl)cc1Cl` [triclosan] was tested, and the MIC ([1]; read-out: MIC Lipid) was 5000 µg/mL (≈ 17.3 mM), the MIC ([1]; read-out: MIC No Lipid) was 156 µg/mL (≈ 0.539 mM) and the MIC (Serratia marcescens; read-out: MIC Lipid) was greater than 10000 µg/mL. For the same compound, the MIC (Serratia marcescens; read-out: MIC No Lipid) was greater than 10000 µg/mL, the MIC (Escherichia coli; read-out: MIC Lipid) was greater than 10000 µg/mL and the MIC (Escherichia coli; read-out: MIC No Lipid) was 156 µg/mL (≈ 0.539 mM). It also gave an MIC (Micrococcus sedentarius; read-out: MIC Lipid) greater than 10000 µg/mL, an MIC (Micrococcus sedentarius; read-out: MIC No Lipid) of 156 µg/mL (≈ 0.539 mM) and an MIC (Micrococcus luteus; read-out: MIC Lipid) greater than 10000 µg/mL. For the same compound, the MIC (Micrococcus luteus; read-out: MIC No Lipid) was 156 µg/mL (≈ 0.539 mM), the MIC (Brevibacterium epidermis; read-out: MIC Lipid) was greater than 10000 µg/mL and the MIC (Brevibacterium epidermis; read-out: MIC No Lipid) was 156 µg/mL (≈ 0.539 mM). The MIC ([2]; read-out: MIC Lipid) was greater than 10000 µg/mL, the MIC ([2]; read-out: MIC No Lipid) was 156 µg/mL (≈ 0.539 mM) and the MIC (Pseudomonas aeruginosa; read-out: MIC Lipid) was greater than 10000 µg/mL. For the same compound, the MIC (Pseudomonas aeruginosa; read-out: MIC No Lipid) was greater than 10000 µg/mL, the MIC (Propionibacterium acnes; read-out: MIC Lipid) was greater than 10000 µg/mL and the MIC (Propionibacterium acnes; read-out: MIC No Lipid) was 156 µg/mL (≈ 0.539 mM). For the same compound, the “effect against the growth” value [3, 22] was “effective against various bacteria”, the “effect against the growth” value [3, 23] was “ineffective; also recorded: not effective against the growth of all the bacteria tested; also recorded: ineffective against most microorganisms” and the MIC ([3]; read-out: concentration found effective against the bacteria tested) was 156 µg/mL (≈ 0.539 mM). The MIC (Staphylococcus aureus; read-out: MIC Lipid) was greater than 10000 µg/mL and the MIC (Staphylococcus aureus; read-out: MIC No Lipid) was 156 µg/mL (≈ 0.539 mM).
